According to ChEMBL document CHEMBL1201862, “PubChem BioAssay data set” (2004):
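96-well plates; 48 h exposure; 5 concentrations. Endpoints by linear interpolation between flanking doses. Not reached: highest tested concentration assigned. Here, GI50 denotes the concentration required for 50% inhibition of growth.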 The source made the active and inactive calls. No stated cut-off is given here; in the data, active = GI50 up to about 1.1 µM and inactive = higher.

Columns and labels:
Assay in all cases: NCI tumour cell line growth inhibition, 48 h
786-0 = system: 786-0
A498 = system: A498
A549 = system: A549
ACHN = system: ACHN
BT-549 = system: BT-549
CAKI-1 = system: CAKI-1
CCRF-CEM = system: CCRF-CEM
COLO 205 = system: COLO 205
DU-145 = system: DU-145
EKVX = system: EKVX
HCT-116 = system: HCT-116
HCT-15 = system: HCT-15
HL-60 = system: HL-60
HOP-62 = system: HOP-62
HOP-92 = system: HOP-92
HT-29 = system: HT-29
Hs-578T = system: Hs-578T
IGROV-1 = system: IGROV-1
K562 = system: K562
KM12 = system: KM12
LOX IMVI = system: LOX IMVI
M14 = system: M14
MDA-MB-231 = system: MDA-MB-231
MDA-MB-435 = system: MDA-MB-435
MDA-N = system: MDA-N
MOLT-4 = system: MOLT-4
Malme-3M = system: Malme-3M
NCI-H226 = system: NCI-H226
NCI-H23 = system: NCI-H23
NCI-H460 = system: NCI-H460
NCI-H522 = system: NCI-H522
NCI/ADR-RES = system: NCI/ADR-RES
OVCAR-3 = system: OVCAR-3
OVCAR-5 = system: OVCAR-5
OVCAR-8 = system: OVCAR-8
PC-3 = system: PC-3
RPMI-8226 = system: RPMI-8226
RXF 393 = system: RXF 393
SF-268 = system: SF-268
SF-295 = system: SF-295
SF-539 = system: SF-539
SK-MEL-28 = system: SK-MEL-28
SK-MEL-2 = system: SK-MEL-2
SK-MEL-5 = system: SK-MEL-5
SK-OV-3 = system: SK-OV-3
SN12C = system: SN12C
SNB-19 = system: SNB-19
SNB-75 = system: SNB-75
SW-620 = system: SW-620
T47D = system: T47D
TK-10 = system: TK-10
U-251 = system: U-251
UACC-257 = system: UACC-257
UACC-62 = system: UACC-62
UO-31 = system: UO-31
HCC 2998 = system: HCC 2998
SR = system: SR

For `CC1=NNC(=O)C1C(CC(=O)c1c[nH]c2ccccc12)C(=O)O` (configuration not stated), the GI50 (786-0) was > 100 µM (inactive), the GI50 (A498) was > 100 µM (inactive) and the GI50 (A549) was > 100 µM (inactive). For the same compound, the GI50 (ACHN) was > 100 µM (inactive), the GI50 (BT-549) was > 100 µM (inactive) and the GI50 (CAKI-1) was > 100 µM (inactive). The GI50 (CCRF-CEM) was 28.6 µM (inactive), the GI50 (COLO 205) was 64.7 µM (inactive) and the GI50 (DU-145) was > 100 µM (inactive). For the same compound, the GI50 (EKVX) was > 100 µM (inactive), the GI50 (HCT-116) was > 100 µM (inactive) and the GI50 (HCT-15) was 92.9 µM. The GI50 (HL-60) was 74.5 µM (inactive), the GI50 (HOP-62) was > 100 µM (inactive) and the GI50 (HOP-92) was > 100 µM (inactive). For the same compound, the GI50 (HT-29) was > 100 µM (inactive), the GI50 (Hs-578T) was > 100 µM (inactive) and the GI50 (IGROV-1) was 15 µM (inactive). The GI50 (K562) was 36.1 µM (inactive), the GI50 (KM12) was 30.1 µM (inactive) and the GI50 (LOX IMVI) was 97.3 µM (inactive). The GI50 (M14) was > 100 µM (inactive), the GI50 (MDA-MB-231) was > 100 µM (inactive) and the GI50 (MDA-MB-435) was 68.5 µM (inactive). For the same compound, the GI50 (MDA-N) was > 100 µM (inactive), the GI50 (MOLT-4) was 49 µM (inactive) and the GI50 (Malme-3M) was > 100 µM (inactive). The GI50 (NCI-H226) was > 100 µM (inactive), the GI50 (NCI-H23) was > 100 µM (inactive) and the GI50 (NCI-H460) was > 100 µM (inactive). The GI50 (NCI-H522) was 72.1 µM (inactive), the GI50 (NCI/ADR-RES) was > 100 µM (inactive) and the GI50 (OVCAR-3) was > 100 µM (inactive). For the same compound, the GI50 (OVCAR-5) was > 100 µM (inactive), the GI50 (OVCAR-8) was > 100 µM (inactive) and the GI50 (PC-3) was > 100 µM (inactive). For the same compound, the GI50 (RPMI-8226) was 35.1 µM (inactive), the GI50 (RXF 393) was > 100 µM (inactive) and the GI50 (SF-268) was > 100 µM (inactive). For the same compound, the GI50 (SF-295) was > 100 µM (inactive), the GI50 (SF-539) was > 100 µM (inactive) and the GI50 (SK-MEL-28) was > 100 µM (inactive). The GI50 (SK-MEL-2) was > 100 µM (inactive), the GI50 (SK-MEL-5) was > 100 µM (inactive) and the GI50 (SK-OV-3) was > 100 µM (inactive). The GI50 (SN12C) was > 100 µM (inactive), the GI50 (SNB-19) was > 100 µM (inactive) and the GI50 (SNB-75) was > 100 µM (inactive). The GI50 (SW-620) was > 100 µM (inactive), the GI50 (T47D) was 76 µM (inactive) and the GI50 (TK-10) was > 100 µM (inactive). The GI50 (U-251) was > 100 µM (inactive), the GI50 (UACC-257) was > 100 µM (inactive) and the GI50 (UACC-62) was > 100 µM (inactive). The GI50 (UO-31) was 64.3 µM (inactive).

`Cc1cc(O)nc(/N=C(\N)Nc2ccc(Cl)cc2)n1` was tested, and the GI50 (786-0) was > 100 µM (inactive), the GI50 (A498) was > 100 µM (inactive) and the GI50 (A549) was > 100 µM (inactive). For the same compound, the GI50 (ACHN) was > 100 µM (inactive), the GI50 (BT-549) was > 100 µM (inactive) and the GI50 (CAKI-1) was > 100 µM (inactive). For the same compound, the GI50 (CCRF-CEM) was > 100 µM (inactive), the GI50 (DU-145) was > 100 µM (inactive) and the GI50 (EKVX) was > 100 µM (inactive). The GI50 (HCC 2998) was > 100 µM (inactive), the GI50 (HCT-116) was > 100 µM (inactive) and the GI50 (HCT-15) was greater than 100 µM. For the same compound, the GI50 (HL-60) was > 100 µM (inactive), the GI50 (HOP-62) was > 100 µM (inactive) and the GI50 (HOP-92) was > 100 µM (inactive). For the same compound, the GI50 (HT-29) was > 100 µM (inactive), the GI50 (Hs-578T) was > 100 µM (inactive) and the GI50 (IGROV-1) was > 100 µM (inactive). For the same compound, the GI50 (K562) was > 100 µM (inactive), the GI50 (KM12) was > 100 µM (inactive) and the GI50 (LOX IMVI) was > 100 µM (inactive). The GI50 (M14) was > 100 µM (inactive), the GI50 (MDA-MB-231) was > 100 µM (inactive) and the GI50 (MDA-MB-435) was > 100 µM (inactive). The GI50 (MDA-N) was > 100 µM (inactive), the GI50 (MOLT-4) was > 100 µM (inactive) and the GI50 (Malme-3M) was > 100 µM (inactive). For the same compound, the GI50 (NCI-H226) was > 100 µM (inactive), the GI50 (NCI-H23) was > 100 µM (inactive) and the GI50 (NCI-H460) was > 100 µM (inactive). The GI50 (NCI-H522) was > 100 µM (inactive), the GI50 (NCI/ADR-RES) was > 100 µM (inactive) and the GI50 (OVCAR-3) was > 100 µM (inactive). For the same compound, the GI50 (OVCAR-5) was > 100 µM (inactive), the GI50 (OVCAR-8) was > 100 µM (inactive) and the GI50 (PC-3) was > 100 µM (inactive). For the same compound, the GI50 (RPMI-8226) was > 100 µM (inactive), the GI50 (RXF 393) was > 100 µM (inactive) and the GI50 (SF-268) was > 100 µM (inactive). For the same compound, the GI50 (SF-295) was > 100 µM (inactive), the GI50 (SK-MEL-28) was > 100 µM (inactive) and the GI50 (SK-MEL-2) was > 100 µM (inactive). The GI50 (SK-MEL-5) was > 100 µM (inactive), the GI50 (SN12C) was > 100 µM (inactive) and the GI50 (SNB-19) was > 100 µM (inactive). The GI50 (SR) was > 100 µM (inactive), the GI50 (SW-620) was > 100 µM (inactive) and the GI50 (T47D) was > 100 µM (inactive). The GI50 (TK-10) was > 100 µM (inactive), the GI50 (U-251) was > 100 µM (inactive) and the GI50 (UACC-257) was > 100 µM (inactive). The GI50 (UACC-62) was > 100 µM (inactive) and the GI50 (UO-31) was > 100 µM (inactive).

With `N#CC1(C#N)N[C@@H](c2ccsc2)[C@H]2C(=O)N(c3ccccc3)C(=O)[C@H]21` the GI50 (786-0) was > 100 µM (inactive), the GI50 (A498) was 26.4 µM (inactive) and the GI50 (A549) was > 100 µM (inactive). For the same compound, the GI50 (ACHN) was > 100 µM (inactive), the GI50 (BT-549) was 97.7 µM (inactive) and the GI50 (CAKI-1) was 43 µM (inactive). The GI50 (COLO 205) was 93.8 µM (inactive), the GI50 (DU-145) was 66.4 µM (inactive) and the GI50 (EKVX) was > 100 µM (inactive). For the same compound, the GI50 (HCT-116) was 79.1 µM (inactive), the GI50 (HL-60) was 21.4 µM (inactive) and the GI50 (HOP-62) was > 100 µM (inactive). For the same compound, the GI50 (HOP-92) was 65.2 µM (inactive), the GI50 (HT-29) was 85.5 µM (inactive) and the GI50 (Hs-578T) was 83.6 µM (inactive). The GI50 (IGROV-1) was 60.7 µM (inactive), the GI50 (K562) was 51.9 µM (inactive) and the GI50 (KM12) was > 100 µM (inactive). The GI50 (LOX IMVI) was 37.3 µM (inactive), the GI50 (MDA-MB-231) was 61 µM (inactive) and the GI50 (MDA-MB-435) was 45.7 µM (inactive). The GI50 (MDA-N) was 38.3 µM (inactive), the GI50 (MOLT-4) was 36.7 µM (inactive) and the GI50 (Malme-3M) was > 100 µM (inactive). For the same compound, the GI50 (NCI-H226) was > 100 µM (inactive), the GI50 (NCI-H23) was > 100 µM (inactive) and the GI50 (NCI-H522) was > 100 µM (inactive). For the same compound, the GI50 (NCI/ADR-RES) was > 100 µM (inactive), the GI50 (OVCAR-3) was > 100 µM (inactive) and the GI50 (OVCAR-8) was > 100 µM (inactive). For the same compound, the GI50 (PC-3) was 53.7 µM (inactive), the GI50 (RPMI-8226) was 18.7 µM (inactive) and the GI50 (RXF 393) was 70.3 µM (inactive). The GI50 (SF-268) was 84.5 µM (inactive), the GI50 (SF-295) was > 100 µM (inactive) and the GI50 (SK-MEL-28) was 77.8 µM (inactive). The GI50 (SK-MEL-2) was > 100 µM (inactive), the GI50 (SK-MEL-5) was 35.4 µM (inactive) and the GI50 (SK-OV-3) was > 100 µM (inactive). For the same compound, the GI50 (SN12C) was 89.1 µM (inactive), the GI50 (SNB-75) was > 100 µM (inactive) and the GI50 (SR) was 21.3 µM (inactive). The GI50 (SW-620) was > 100 µM (inactive), the GI50 (T47D) was 63.2 µM (inactive) and the GI50 (TK-10) was > 100 µM (inactive). The GI50 (U-251) was 77.6 µM (inactive), the GI50 (UACC-257) was 29.6 µM (inactive) and the GI50 (UACC-62) was 28.8 µM (inactive). For the same compound, the GI50 (UO-31) was > 100 µM (inactive).
